Series [1] deals with H1N1 California/07/2009. Briefly: microbe, parasite or virus in culture. The following applies: read-out: EC50 (μM) H1N1 California/07/2009. The class given is cell-based, influenza A virus.
A short description of the next series: in vitro. The conditions noted are these: dog.
Series [2] concerns H1N1 California/07/2009. Briefly: microbe, parasite or virus in culture. It counts as cell-based, influenza A virus.
For series [3], the system named is H3N2 Perth/16/2009. Briefly: microbe, parasite or virus in culture. The class given is cell-based, influenza A virus. The following applies: read-out: EC50 (μM) H3N2 Perth/16/2009.
Series [4] deals with H3N2 Perth/16/2009. The experiment in a line: microbe, parasite or virus in culture. It counts as cell-based, influenza A virus. The following applies: read-out: EC50 (μM) H3N2 Perth/16/2009. This is another data set of the same source.
Where [5] appears, read: CC50 (μM) H1N1 California/07/2009, Cell cytotoxicity (CC), run with H1N1 California/07/2009.
[6] abbreviates: CC50 (μM) H3N2 Perth/16/2009, Cell cytotoxicity (CC), run with H3N2 Perth/16/2009.
The mark [7] stands for this setting: CC50, MDCK cells, run with Influenza A H1N1 California/07/2009, Neutral Red.
Where [8] appears, read: CC50, MDCK cells, run with Influenza A H1N1 California/07/2009, Visual.
[9] abbreviates: read-out: EC50 (μM) H1N1 California/07/2009.

For orientation: CC50 means the concentration giving 50% cytotoxicity. Low values mean harm at low concentration, high ones better tolerance by the cells.

Values joined by “and” are separate entries in the source; they are usually repeats but may differ in a detail not shown here. Identical values can stand only once. Like-named read-outs stand apart in the source and are kept apart here. Bridge positions count the residues as written; N and C are the ends. Square brackets hold non-standard residues; d marks the D form. Peptide text beside a SMILES is read from it. * marks the point of attachment. 5FAM = O=C1OC2(c3ccc(O)cc3Oc3cc(O)ccc32)c2ccc(C(=O)*)cc21; S5 = C=CCCC[C@](C)(N)C(=O)O; Nle = CCCC[C@H](N)C(=O)O; Aib = CC(C)(N)C(=O)O; βAla = NCCC(=O)O

For the molecule `CCCC[C@H](NC(C)=O)C(=O)N[C@@H](CC(=O)O)C(=O)N[C@H](C(=O)N[C@@H](CC(N)=O)C(=O)N[C@@]1(C)CCCC=CCCC[C@@](C)(C(=O)N[C@@H](CC(C)C)C(=O)N[C@@H](CCCCN)C(=O)N[C@H](C(=O)N2CCC[C@H]2C(=O)NC(C)(C)C(=O)N[C@@H](CCC(N)=O)C(N)=O)C(C)C)NC(=O)[C@H](CC(C)C)NC(=O)[C@H](CC(C)C)NC(=O)[C@H]([C@@H](C)O)NC1=O)C(C)C` [SP-3] (Ac-[Nle]DVN[S5]TLL[S5]LKVP[Aib]Q-NH2; staple 5-9), the EC50 in the series on H1N1 California/07/2009 [1] is > 50 µM; with H1N1 California/07/2009 [2] (read-out: EC50), > 100 µM and 73 µM; in the series with H1N1 California/07/2009 [2] (setting [9]), > 50 µM; in the series on H3N2 Perth/16/2009 [3], > 50 µM; in the series with H3N2 Perth/16/2009 [4] it was 25 to 50 µM. The CC50 in the series “in vitro” (setting [5]), in the series “in vitro” (setting [6]), in “in vitro” (setting [7]) and in “in vitro” (setting [8]) was > 100 µM in each case.

Turning to `CCCC[C@H](NC(C)=O)C(=O)N[C@@H](CC(=O)O)C(=O)N[C@H](C(=O)N[C@@H](CC(N)=O)C(=O)N[C@@]1(C)CCCC=CCCC[C@@](C)(C(=O)N[C@@H](CC(C)C)C(=O)N[C@@H](CCCCN)C(=O)N[C@@H](C)C(=O)NC(C)(C)C(=O)N[C@@H](C)C(=O)N[C@@H](CCC(N)=O)C(N)=O)NC(=O)[C@H](CC(C)C)NC(=O)[C@H](CC(C)C)NC(=O)[C@H]([C@@H](C)O)NC1=O)C(C)C` [SP-1] (Ac-[Nle]DVN[S5]TLL[S5]LKA[Aib]AQ-NH2; staple 5-9), the EC50 with H1N1 California/07/2009 [1] was > 50 µM; in the series with H1N1 California/07/2009 [2] (setting [9]), 25 to 50 µM; in the series on H3N2 Perth/16/2009 [3], 25 to 50 µM; in the series with H3N2 Perth/16/2009 [4], 25 to 50 µM. For the same molecule, the cytotoxic concentration (CC50) in the series “in vitro” (setting [5]), in the series “in vitro” (setting [6]), in the series “in vitro” (setting [7]) and in “in vitro” (setting [8]) was > 100 µM throughout.

As to `CCCC[C@H](NC(=O)CCNC(=O)c1ccc2c(c1)C(=O)OC21c2ccc(O)cc2Oc2cc(O)ccc21)C(=O)N[C@@H](CC(=O)O)C(=O)N[C@H](C(=O)N[C@@H](CC(N)=O)C(=O)N[C@@]1(C)CCCC=CCCC[C@@](C)(C(=O)N[C@@H](CC(C)C)C(=O)N[C@@H](C)C(=O)N[C@H](C(=O)NC(C)(C)C(=O)N[C@@H](C)C(=O)N[C@@H](CCC(N)=O)C(N)=O)C(C)C)NC(=O)[C@H](CC(C)C)NC(=O)[C@H](CC(C)C)NC(=O)[C@H]([C@@H](C)O)NC1=O)C(C)C` [SP-5] ({5FAM-βAla}-[Nle]DVN[S5]TLL[S5]LAV[Aib]AQ-NH2; staple 5-9), the half-maximal cytotoxic concentration (CC50) in the series “in vitro” (setting [5]), in the series “in vitro” (setting [6]), in the series “in vitro” (setting [7]) and in the series “in vitro” (setting [8]) was > 100 µM throughout.

The values are drawn from patent US10059741B2 (priority 2015, dated 2018).
